The record followed here is patent US11220508B2, “TYK2 inhibitors and uses thereof” (Nimbus Lakshmi, Inc., priority 2016, dated 2022).

Each structure is given as a SMILES string.

By Kd is commonly meant the free concentration of one partner at which half of the binding sites on the other are occupied at equilibrium, for simple one-to-one binding.

Experiment [1] addresses TYK2 JH1 kinase function (Homo sapiens (Human), UniProt P29597). The experiment is described as follows: Tyk2 radioactive kinase assay. The class given is biochemical. The settings on record: active kinase assay, ATP at 10 μM. How it is done: (§1) Peptide substrate, [KKSRGDYMTMQIG], (20 μM) is prepared in reaction buffer (20 mM Hepes pH 7.5, 10 mM MgCl2, 1 mM EGTA, 0.02% Brij35, 0.02 mg/mL BSA, 0.1 mM […], 2 mM DTT, 1% DMSO. TYK2 (Invitrogen) kinase is added, followed by compounds in DMSO. 33PATP is added to initiate the reaction in ATP at 10 μM. Kinase reaction is incubated for 120 min at room temp and reactions are spotted onto P81 ion exchange paper (Whatman #3698-915), and then washed extensively in 0.75% phosphoric acid, prior to reading the radioactivity counts. For JAK2 (Invitrogen) kinase assay the peptide substrate poly[Glu:Tyr] (4:1), 0.2 mg/ml is used, in the reaction carried out the same as for TYK2.

For experiment [2], the target named is human TYK2 (JH2domain-pseudokinase) (Homo sapiens (Human), UniProt P29597). The experiment is described as follows: TYK2 JH2 domain binding assay (KINOMEscan, DiscoveRx). Conditions: Table 4, JH2 binding assay.
Sequence of human TYK2 (JH2domain-pseudokinase) (P29597 556-888): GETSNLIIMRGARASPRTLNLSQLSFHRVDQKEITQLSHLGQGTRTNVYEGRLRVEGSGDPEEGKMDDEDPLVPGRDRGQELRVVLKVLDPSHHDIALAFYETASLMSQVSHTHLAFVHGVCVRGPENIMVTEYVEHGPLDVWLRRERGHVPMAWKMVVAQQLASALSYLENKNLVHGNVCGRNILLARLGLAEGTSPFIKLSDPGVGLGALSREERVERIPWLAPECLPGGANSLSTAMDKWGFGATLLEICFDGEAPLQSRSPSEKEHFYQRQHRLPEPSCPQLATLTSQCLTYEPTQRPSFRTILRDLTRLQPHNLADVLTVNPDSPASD
For experiment [3], the target named is JAK2 JH1 kinase function (Homo sapiens (Human), UniProt O60674). The experiment is described as follows: JAK2 radioactive kinase assay. The settings on record: active kinase assay, ATP at 10 μM. The class given is biochemical. How it is done: as §1
Sequence of JAK2 JH1 kinase function (O60674 whole entry): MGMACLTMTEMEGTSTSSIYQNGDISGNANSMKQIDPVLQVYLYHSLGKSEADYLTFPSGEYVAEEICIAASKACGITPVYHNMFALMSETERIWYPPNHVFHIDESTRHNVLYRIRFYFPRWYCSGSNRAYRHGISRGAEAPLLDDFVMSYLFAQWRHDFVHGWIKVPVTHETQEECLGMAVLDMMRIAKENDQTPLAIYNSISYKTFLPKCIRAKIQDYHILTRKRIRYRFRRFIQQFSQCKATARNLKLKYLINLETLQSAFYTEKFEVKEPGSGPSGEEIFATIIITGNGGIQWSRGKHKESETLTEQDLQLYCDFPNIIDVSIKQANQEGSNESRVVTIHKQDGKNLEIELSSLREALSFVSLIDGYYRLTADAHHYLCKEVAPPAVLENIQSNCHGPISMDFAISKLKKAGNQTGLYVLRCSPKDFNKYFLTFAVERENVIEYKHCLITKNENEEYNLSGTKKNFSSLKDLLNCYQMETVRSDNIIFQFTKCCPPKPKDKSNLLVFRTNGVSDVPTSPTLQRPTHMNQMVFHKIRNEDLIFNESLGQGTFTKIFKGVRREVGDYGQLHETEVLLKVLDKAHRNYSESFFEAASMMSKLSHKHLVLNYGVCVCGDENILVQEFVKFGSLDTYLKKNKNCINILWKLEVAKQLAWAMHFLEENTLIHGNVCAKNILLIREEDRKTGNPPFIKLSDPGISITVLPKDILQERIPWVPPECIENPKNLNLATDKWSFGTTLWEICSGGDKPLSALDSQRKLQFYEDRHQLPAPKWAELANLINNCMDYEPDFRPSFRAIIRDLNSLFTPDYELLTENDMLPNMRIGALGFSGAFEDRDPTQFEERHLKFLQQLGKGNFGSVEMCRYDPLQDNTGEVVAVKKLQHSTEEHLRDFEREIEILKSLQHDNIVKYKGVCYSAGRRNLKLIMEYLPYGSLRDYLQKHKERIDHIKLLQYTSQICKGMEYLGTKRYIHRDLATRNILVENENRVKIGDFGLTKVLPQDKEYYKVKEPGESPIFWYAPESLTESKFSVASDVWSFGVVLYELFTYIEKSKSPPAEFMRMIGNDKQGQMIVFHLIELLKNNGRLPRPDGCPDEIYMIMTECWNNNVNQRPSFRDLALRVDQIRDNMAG

Sequence of TYK2 JH1 kinase function (P29597 whole entry): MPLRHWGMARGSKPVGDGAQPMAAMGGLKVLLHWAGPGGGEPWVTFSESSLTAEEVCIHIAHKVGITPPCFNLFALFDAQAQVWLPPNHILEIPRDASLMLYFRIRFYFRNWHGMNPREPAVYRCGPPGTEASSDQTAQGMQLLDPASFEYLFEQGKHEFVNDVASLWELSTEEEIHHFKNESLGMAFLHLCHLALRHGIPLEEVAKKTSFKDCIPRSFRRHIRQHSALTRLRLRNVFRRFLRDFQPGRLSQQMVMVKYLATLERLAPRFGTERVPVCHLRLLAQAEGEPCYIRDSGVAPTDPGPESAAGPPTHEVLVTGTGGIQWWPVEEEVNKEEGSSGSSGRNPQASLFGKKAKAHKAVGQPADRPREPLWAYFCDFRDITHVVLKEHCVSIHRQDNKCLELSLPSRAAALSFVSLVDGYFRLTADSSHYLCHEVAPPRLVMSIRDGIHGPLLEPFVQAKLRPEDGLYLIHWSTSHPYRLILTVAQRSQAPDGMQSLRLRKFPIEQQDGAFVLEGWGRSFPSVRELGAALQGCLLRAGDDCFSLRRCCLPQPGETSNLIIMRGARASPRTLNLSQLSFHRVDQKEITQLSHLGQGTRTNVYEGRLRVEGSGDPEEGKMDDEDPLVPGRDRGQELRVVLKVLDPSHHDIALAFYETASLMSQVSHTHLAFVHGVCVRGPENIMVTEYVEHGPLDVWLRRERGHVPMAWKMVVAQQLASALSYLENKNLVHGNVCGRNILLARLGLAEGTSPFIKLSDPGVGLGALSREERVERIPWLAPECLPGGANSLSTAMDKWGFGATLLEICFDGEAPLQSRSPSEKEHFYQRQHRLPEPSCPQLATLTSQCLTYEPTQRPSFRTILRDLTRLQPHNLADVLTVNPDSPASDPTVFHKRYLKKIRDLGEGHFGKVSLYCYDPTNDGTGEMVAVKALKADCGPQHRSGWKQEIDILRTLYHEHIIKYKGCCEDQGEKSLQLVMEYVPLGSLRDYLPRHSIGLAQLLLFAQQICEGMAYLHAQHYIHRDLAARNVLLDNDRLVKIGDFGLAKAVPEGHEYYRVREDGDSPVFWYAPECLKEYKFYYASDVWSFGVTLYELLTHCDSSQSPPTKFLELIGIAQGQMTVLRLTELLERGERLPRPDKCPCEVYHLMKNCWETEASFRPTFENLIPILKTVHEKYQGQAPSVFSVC

For the compound `COc1c(Nc2cc(NC(=O)C3CC3)nc3[nH]n(C)c(=O)c23)cccc1-c1nnn(C)n1` [Compound I-1, N-(4-((2-methoxy-3-(2-methyl-2H-tetrazol-5-yl)phenyl)amino)-2-methyl-3-oxo-2,3-dihydro-1H-pyrazolo[3,4-b]pyridin-6-yl)cyclopropanecarboxamide], the “inhibitory activity against TYK2 JH1 kinase function” value in experiment [1] is reported as “no detectable inhibitory activity”.

With `COCc1ccnc(Nc2cc(Nc3cccc(-c4nnn(C)n4)c3OC)c3c(=O)n(C)[nH]c3n2)c1` [Compound I-2, 4-((2-methoxy-3-(2-methyl-2H-tetrazol-5-yl)phenyl)amino)-6-((4-(methoxymethyl)pyridin-2-yl)amino)-2-methyl-1,2-dihydro-3H-pyrazolo[3,4-b]pyridin-3-one], the “inhibitory activity against TYK2 JH1 kinase function” value in experiment [1] was “no detectable inhibitory activity”.

`COc1c(Cl)cccc1Nc1cc(Nc2cccc(N3CC(OC)C3)n2)nc2[nH]n(C)c(=O)c12` [Compound I-116, 4-((3-chloro-2-methoxyphenyl)amino)-6-((6-(3-methoxyazetidin-1-yl)pyridin-2-yl)amino)-2-methyl-1,2-dihydro-3H-pyrazolo[3,4-b]pyridin-3-one] registered a Kd in experiment [2] of more than 10 nM.

On to `COc1c(Nc2cc(NC(=O)C3CC3)ncc2-c2ncc(Cl)s2)cccc1-c1nnn(C)n1` [VIII-1, N-(5-(5-chlorothiazol-2-yl)-4-((2-methoxy-3-(2-methyl-2H-tetrazol-5-yl)phenyl)amino)pyridin-2-yl)cyclopropanecarboxamide], for which the “inhibitory activity against TYK2 JH1 kinase function” value in experiment [1] is “no detectable inhibitory activity”. Besides, in experiment [3], the “inhibitory activity against JAK2 JH1 kinase function” value is listed as “no detectable inhibitory activity”.

Take `COc1c(Nc2cc(NC(=O)C3CC3)ncc2-c2ncc(F)s2)cccc1-c1nnn(C)n1` [VIII-2, N-(5-(5-fluorothiazol-2-yl)-4-((2-methoxy-3-(2-methyl-2H-tetrazol-5-yl)phenyl)amino)pyridin-2-yl)cyclopropanecarboxamide]: the “inhibitory activity against TYK2 JH1 kinase function” value in experiment [1] is on record as “no detectable inhibitory activity”. In experiment [3], the “inhibitory activity against JAK2 JH1 kinase function” value is reported as “no detectable inhibitory activity”.

On to `COc1c(Nc2cc(NC(=O)C3CC3)ncc2-c2nnc(C(F)(F)F)o2)cccc1-c1ncn(C)n1` [VIII-3, N-(4-((2-methoxy-3-(1-methyl-1H-1,2,4-triazol-3-yl)phenyl)amino)-5-(5-(trifluoromethyl)-1,3,4-oxadiazol-2-yl)pyridin-2-yl)cyclopropanecarboxamide], for which the “inhibitory activity against TYK2 JH1 kinase function” value in experiment [1] is given as “no detectable inhibitory activity”. Moreover, the “inhibitory activity against JAK2 JH1 kinase function” value in experiment [3] is listed as “no detectable inhibitory activity”.

On to `COC(=O)c1nnc(-c2cnc(NC(=O)C3CC3)cc2Nc2cccc(-c3ncn(C)n3)c2OC)o1` [VIII-4, methyl 5-(6-(cyclopropanecarboxamido)-4-((2-methoxy-3-(1-methyl-1H-1,2,4-triazol-3-yl)phenyl)amino)pyridin-3-yl)-1,3,4-oxadiazole-2-carboxylate], for which, in experiment [1], the “inhibitory activity against TYK2 JH1 kinase function” value is “no detectable inhibitory activity”. In addition, the “inhibitory activity against JAK2 JH1 kinase function” value in experiment [3] was “no detectable inhibitory activity”.
